Laboratory results from ChEMBL document CHEMBL3991601, “The target landscape of clinical kinase drugs” (Science, 2017).
The source made the active and inactive calls.

Columns and labels:
[1] = biological target: T1, Phosphatidylinositol 5-phosphate 4-kinase type-2 alpha (Homo sapiens, UniProt P48426)
T1 sequence (P48426 whole entry): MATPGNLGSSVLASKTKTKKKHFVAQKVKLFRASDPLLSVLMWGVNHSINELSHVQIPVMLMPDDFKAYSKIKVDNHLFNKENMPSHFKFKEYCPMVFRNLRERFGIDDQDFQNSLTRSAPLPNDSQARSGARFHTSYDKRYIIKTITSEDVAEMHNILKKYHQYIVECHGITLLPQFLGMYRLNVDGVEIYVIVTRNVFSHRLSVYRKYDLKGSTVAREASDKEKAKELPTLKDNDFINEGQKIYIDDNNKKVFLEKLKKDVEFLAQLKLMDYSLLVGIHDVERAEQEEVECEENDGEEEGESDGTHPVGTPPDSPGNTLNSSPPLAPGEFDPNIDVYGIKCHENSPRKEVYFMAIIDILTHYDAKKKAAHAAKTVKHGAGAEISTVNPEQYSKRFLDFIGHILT

[2] = biological target: Mitogen-activated protein kinase 10 (Homo sapiens, UniProt P53779)
[3] = biological target: T2, Dual specificity mitogen-activated protein kinase kinase 6 (Homo sapiens, UniProt P52564)
T2 sequence (P52564 whole entry): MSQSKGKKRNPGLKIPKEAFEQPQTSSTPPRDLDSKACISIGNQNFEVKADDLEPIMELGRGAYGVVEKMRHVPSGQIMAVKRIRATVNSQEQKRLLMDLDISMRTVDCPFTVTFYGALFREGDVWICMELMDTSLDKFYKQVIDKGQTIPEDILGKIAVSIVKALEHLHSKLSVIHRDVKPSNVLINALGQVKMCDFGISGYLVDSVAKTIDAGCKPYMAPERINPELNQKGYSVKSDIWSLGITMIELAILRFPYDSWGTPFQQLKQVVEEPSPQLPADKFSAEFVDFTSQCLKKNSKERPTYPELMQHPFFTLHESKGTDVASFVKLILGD

[4] = biological target: T3, Mitogen-activated protein kinase kinase kinase kinase 3 (Homo sapiens, UniProt Q8IVH8)
T3 sequence (Q8IVH8 whole entry): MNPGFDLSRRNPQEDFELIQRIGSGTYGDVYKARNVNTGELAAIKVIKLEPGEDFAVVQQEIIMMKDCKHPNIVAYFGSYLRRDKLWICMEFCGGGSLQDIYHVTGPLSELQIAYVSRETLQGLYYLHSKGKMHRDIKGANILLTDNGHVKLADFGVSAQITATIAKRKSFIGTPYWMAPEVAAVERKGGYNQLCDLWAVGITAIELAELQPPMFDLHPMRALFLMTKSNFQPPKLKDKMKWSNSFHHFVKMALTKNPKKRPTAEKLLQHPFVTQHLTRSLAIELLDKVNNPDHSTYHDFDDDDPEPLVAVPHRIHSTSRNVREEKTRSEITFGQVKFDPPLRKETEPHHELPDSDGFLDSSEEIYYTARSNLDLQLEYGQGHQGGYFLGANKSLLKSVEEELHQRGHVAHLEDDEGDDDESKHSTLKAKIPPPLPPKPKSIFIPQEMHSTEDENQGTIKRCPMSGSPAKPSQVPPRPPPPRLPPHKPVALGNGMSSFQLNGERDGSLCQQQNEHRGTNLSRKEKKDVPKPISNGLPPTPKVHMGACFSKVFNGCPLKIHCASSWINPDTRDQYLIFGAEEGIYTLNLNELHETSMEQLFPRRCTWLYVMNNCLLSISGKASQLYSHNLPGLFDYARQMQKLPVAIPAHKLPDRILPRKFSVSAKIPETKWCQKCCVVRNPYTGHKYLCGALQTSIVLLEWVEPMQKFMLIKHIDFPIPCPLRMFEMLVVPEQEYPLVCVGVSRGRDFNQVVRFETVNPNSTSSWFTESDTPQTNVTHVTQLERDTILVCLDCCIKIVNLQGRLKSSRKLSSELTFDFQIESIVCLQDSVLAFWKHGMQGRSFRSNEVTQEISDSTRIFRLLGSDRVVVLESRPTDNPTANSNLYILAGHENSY

[5] = biological target: ATP-dependent RNA helicase DDX3X (Homo sapiens, UniProt O00571)
DNA topoisomerase 2-beta = DNA topoisomerase 2-beta (Homo sapiens, UniProt Q02880)
ADP/ATP translocase 3 = biological target: T4, ADP/ATP translocase 3 (Homo sapiens, UniProt P12236)
T4 sequence (P12236 whole entry): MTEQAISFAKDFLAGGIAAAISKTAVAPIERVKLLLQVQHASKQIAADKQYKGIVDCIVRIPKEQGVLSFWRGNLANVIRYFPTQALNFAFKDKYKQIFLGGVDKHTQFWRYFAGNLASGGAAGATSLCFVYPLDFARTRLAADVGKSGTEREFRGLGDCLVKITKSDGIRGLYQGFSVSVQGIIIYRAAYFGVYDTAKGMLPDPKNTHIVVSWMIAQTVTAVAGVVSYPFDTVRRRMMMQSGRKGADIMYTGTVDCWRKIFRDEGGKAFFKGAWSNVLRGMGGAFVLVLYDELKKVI

[6] = biological target: T5, Peroxisomal acyl-coenzyme A oxidase 3 (Homo sapiens, UniProt O15254)
T5 sequence (O15254 whole entry): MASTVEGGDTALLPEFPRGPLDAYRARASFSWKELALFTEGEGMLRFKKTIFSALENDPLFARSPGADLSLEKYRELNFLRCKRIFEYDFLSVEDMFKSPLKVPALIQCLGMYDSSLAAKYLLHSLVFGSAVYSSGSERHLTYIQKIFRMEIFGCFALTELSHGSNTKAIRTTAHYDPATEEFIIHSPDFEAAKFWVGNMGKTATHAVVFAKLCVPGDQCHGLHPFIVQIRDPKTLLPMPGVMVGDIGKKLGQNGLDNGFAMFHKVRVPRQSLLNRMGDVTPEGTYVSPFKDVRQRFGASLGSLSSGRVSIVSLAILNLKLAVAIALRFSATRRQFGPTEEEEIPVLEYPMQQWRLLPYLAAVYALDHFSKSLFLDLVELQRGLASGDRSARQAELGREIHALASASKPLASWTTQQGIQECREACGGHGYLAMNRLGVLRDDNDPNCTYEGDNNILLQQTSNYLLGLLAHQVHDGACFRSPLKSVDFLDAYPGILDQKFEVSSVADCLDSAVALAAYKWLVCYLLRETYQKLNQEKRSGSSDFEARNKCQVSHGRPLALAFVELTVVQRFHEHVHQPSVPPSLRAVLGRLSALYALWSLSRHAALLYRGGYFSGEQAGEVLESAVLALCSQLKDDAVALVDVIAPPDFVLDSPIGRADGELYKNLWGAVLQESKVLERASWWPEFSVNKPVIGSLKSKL

[7] = biological target: Protein kinase C alpha type (Homo sapiens, UniProt P17252)
Further: in the data inactive means no Kd found up to 30 µM.

ATP-dependent RNA helicase DDX3X, sequence (O00571 whole entry): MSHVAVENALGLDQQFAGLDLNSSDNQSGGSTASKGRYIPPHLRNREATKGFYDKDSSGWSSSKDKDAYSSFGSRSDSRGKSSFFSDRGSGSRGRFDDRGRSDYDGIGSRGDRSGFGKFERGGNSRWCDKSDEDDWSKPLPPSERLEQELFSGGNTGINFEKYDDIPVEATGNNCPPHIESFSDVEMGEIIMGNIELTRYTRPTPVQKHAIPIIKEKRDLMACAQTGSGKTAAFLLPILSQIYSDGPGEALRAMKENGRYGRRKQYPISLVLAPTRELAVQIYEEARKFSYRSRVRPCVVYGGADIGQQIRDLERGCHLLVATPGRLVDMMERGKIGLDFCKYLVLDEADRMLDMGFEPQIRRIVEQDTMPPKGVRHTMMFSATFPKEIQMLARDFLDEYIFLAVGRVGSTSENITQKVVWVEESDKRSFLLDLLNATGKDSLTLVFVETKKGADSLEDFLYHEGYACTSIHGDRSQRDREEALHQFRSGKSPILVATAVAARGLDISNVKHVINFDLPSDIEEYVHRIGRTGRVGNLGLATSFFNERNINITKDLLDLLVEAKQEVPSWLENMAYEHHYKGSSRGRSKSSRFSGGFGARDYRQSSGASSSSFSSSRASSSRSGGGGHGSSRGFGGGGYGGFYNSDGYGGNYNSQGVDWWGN
DNA topoisomerase 2-beta, sequence (Q02880 whole entry): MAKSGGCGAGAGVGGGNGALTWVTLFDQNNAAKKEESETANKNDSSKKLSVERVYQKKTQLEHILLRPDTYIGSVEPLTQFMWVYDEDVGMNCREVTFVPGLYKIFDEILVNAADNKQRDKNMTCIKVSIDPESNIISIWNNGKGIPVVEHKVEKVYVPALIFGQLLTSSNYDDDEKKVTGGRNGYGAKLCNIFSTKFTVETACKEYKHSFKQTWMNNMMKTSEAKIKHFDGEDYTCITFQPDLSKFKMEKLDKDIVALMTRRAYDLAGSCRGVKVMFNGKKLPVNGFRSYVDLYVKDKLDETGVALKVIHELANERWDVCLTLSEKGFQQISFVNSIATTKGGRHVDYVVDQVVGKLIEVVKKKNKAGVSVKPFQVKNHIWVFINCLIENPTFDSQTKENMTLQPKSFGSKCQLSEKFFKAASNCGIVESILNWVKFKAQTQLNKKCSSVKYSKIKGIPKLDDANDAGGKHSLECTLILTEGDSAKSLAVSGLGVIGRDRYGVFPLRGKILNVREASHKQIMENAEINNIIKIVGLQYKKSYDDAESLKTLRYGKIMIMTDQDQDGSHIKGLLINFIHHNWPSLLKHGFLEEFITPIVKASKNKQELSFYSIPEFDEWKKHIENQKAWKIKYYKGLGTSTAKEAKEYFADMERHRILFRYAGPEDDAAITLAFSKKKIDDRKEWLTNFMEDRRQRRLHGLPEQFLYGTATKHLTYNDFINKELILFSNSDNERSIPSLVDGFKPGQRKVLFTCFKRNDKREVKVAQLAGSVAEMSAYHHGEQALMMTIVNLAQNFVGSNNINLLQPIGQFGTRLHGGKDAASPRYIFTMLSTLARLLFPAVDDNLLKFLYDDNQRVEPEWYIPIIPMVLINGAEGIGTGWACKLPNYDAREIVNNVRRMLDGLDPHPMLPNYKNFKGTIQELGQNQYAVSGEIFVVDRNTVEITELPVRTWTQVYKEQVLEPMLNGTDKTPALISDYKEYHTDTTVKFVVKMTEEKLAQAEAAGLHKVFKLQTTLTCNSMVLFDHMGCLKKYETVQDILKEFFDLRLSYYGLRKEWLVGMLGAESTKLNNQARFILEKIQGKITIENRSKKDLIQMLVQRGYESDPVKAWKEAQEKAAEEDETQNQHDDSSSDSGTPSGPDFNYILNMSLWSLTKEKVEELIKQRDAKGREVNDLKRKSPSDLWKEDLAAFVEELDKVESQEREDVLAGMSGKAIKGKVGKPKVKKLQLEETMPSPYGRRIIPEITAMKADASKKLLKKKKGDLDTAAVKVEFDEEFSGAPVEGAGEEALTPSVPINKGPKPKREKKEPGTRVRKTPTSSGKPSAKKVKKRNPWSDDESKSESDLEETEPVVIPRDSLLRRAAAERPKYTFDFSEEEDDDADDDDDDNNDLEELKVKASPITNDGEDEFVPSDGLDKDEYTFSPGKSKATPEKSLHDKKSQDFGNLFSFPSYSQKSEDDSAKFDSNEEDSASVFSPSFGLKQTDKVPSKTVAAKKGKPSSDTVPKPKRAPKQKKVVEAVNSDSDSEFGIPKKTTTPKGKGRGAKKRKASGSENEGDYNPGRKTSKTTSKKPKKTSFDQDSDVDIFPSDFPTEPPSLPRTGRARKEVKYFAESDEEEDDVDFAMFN
Mitogen-activated protein kinase 10, sequence (P53779 whole entry): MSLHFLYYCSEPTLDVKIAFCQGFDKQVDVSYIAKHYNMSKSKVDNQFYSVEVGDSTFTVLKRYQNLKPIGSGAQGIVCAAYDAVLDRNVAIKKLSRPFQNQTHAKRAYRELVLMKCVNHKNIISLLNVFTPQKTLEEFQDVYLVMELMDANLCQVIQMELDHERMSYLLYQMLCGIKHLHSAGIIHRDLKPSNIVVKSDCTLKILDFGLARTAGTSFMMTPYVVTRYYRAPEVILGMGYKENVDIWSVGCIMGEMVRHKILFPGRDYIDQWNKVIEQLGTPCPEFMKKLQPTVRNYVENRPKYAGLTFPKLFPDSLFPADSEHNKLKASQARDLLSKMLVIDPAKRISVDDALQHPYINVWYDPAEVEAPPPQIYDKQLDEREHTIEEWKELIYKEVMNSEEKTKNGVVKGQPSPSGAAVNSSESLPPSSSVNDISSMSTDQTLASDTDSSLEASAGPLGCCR

SMILES | Kd [1] | Kd [2] | Kd [3] | Kd [4] | Kd [5] | Kd (DNA topoisomerase 2-beta) | Kd (ADP/ATP translocase 3) | Kd [6] | Kd [7]
Cc1cc(Nc2nc(N[C@@H](C)c3ncc(F)cn3)ncc2Cl)n[nH]1 [AZD-1480] | > 30 µM (inactive) | > 30 µM (inactive) | > 30 µM (inactive) | > 30 µM (inactive) | > 30 µM (inactive) | > 30 µM (inactive) | > 30 µM (inactive) | > 30 µM (inactive) | > 30 µM (inactive)
COc1cccc(Nc2ncnn3ccc(CN4CC[C@@H](N)[C@H](O)C4)c23)c1 [BMS-690514] | > 30 µM (inactive) | > 30 µM (inactive) | > 30 µM (inactive) | > 30 µM (inactive) | > 30 µM (inactive) | > 30 µM (inactive) | > 30 µM (inactive) | > 30 µM (inactive) | 1.56 µM (active)
CCc1cc2c(cc1N1CCC(N3CCOCC3)CC1)C(C)(C)c1[nH]c3cc(C#N)ccc3c1C2=O [ALECTINIB] | > 30 µM (inactive) | > 30 µM (inactive) | > 30 µM (inactive) | > 30 µM (inactive) | > 30 µM (inactive) | > 30 µM (inactive) | > 30 µM (inactive) | 2.6 µM (active) | > 30 µM (inactive)
CNC(=O)c1cccc(-c2ccc3c(N4CCOC[C@@H]4C)nc(N4CCOC[C@@H]4C)nc3n2)c1 [VISTUSERTIB] | > 30 µM (inactive) | > 30 µM (inactive) | > 30 µM (inactive) | > 30 µM (inactive) | > 30 µM (inactive) | > 30 µM (inactive) | > 30 µM (inactive) | > 30 µM (inactive) | > 30 µM (inactive)
Cn1c(=O)c(F)c(Nc2ccc(I)cc2F)c2c(=O)n(C[C@@H](O)CO)cnc21 [TAK-733] | > 30 µM (inactive) | > 30 µM (inactive) | > 30 µM (inactive) | > 30 µM (inactive) | > 30 µM (inactive) | > 30 µM (inactive) | > 30 µM (inactive) | > 30 µM (inactive) | > 30 µM (inactive)
CC[C@@](C)(Nc1ccnc(-c2c[nH]c3ncccc23)n1)C(=O)NCC(F)(F)F [DECERNOTINIB] | > 30 µM (inactive) | > 30 µM (inactive) | > 30 µM (inactive) | > 30 µM (inactive) | > 30 µM (inactive) | 0.148 µM (active) | > 30 µM (inactive) | > 30 µM (inactive) | 0.117 µM (active)
Cc1cc(-c2cc(OC(=O)c3ccccc3)ccc2Cl)cc2nnc(Nc3ccc(OCCN4CCCC4)cc3)nc12 [TG100-801] | > 30 µM (inactive) | > 30 µM (inactive) | > 30 µM (inactive) | > 30 µM (inactive) | > 30 µM (inactive) | > 30 µM (inactive) | > 30 µM (inactive) | > 30 µM (inactive) | > 30 µM (inactive)
O=C(NOC[C@H](O)CO)c1ccc(F)c(F)c1Nc1ccc(I)cc1F [MIRDAMETINIB] | > 30 µM (inactive) | > 30 µM (inactive) | > 30 µM (inactive) | > 30 µM (inactive) | > 30 µM (inactive) | > 30 µM (inactive) | > 30 µM (inactive) | > 30 µM (inactive) | > 30 µM (inactive)
Cc1cc(C(=O)Nc2cc(Oc3ccc4nc(NC(=O)C5CC5)cn4n3)ccc2C)n(C)n1 [TAK-593] | > 30 µM (inactive) | > 30 µM (inactive) | > 30 µM (inactive) | > 30 µM (inactive) | > 30 µM (inactive) | > 30 µM (inactive) | > 30 µM (inactive) | > 30 µM (inactive) | > 30 µM (inactive)
COc1cc(Nc2ncc(F)c(Nc3ccc4c(n3)N(COP(=O)(O)O)C(=O)C(C)(C)O4)n2)cc(OC)c1OC [FOSTAMATINIB] | > 30 µM (inactive) | > 30 µM (inactive) | > 30 µM (inactive) | > 30 µM (inactive) | > 30 µM (inactive) | > 30 µM (inactive) | > 30 µM (inactive) | > 30 µM (inactive) | > 30 µM (inactive)
C[C@@H]1COC(Nc2ccc3ncnc(Nc4ccc(OCc5nccs5)c(Cl)c4)c3c2)=N1 [VARLITINIB] | > 30 µM (inactive) | > 30 µM (inactive) | > 30 µM (inactive) | > 30 µM (inactive) | > 30 µM (inactive) | > 30 µM (inactive) | > 30 µM (inactive) | > 30 µM (inactive) | > 30 µM (inactive)
COCCN1CCN(Cc2ccc(-c3n[nH]c4c3C(=O)c3c(NC(=O)NN5CCOCC5)cccc3-4)cc2)CC1 [RGB-286638] | > 30 µM (inactive) | 0.011 µM | 1.95 µM (active) | > 30 µM (inactive) | > 30 µM (inactive) | > 30 µM (inactive) | > 30 µM (inactive) | > 30 µM (inactive) | > 30 µM (inactive)
CNC(=O)c1ccc(Nc2ncc(C(F)(F)F)c(NCc3nccnc3N(C)S(C)(=O)=O)n2)cc1 [DEFACTINIB] | > 30 µM (inactive) | > 30 µM (inactive) | > 30 µM (inactive) | > 30 µM (inactive) | > 30 µM (inactive) | > 30 µM (inactive) | > 30 µM (inactive) | > 30 µM (inactive) | > 30 µM (inactive)
Cc1ccc(C(=O)Nc2ccc(Oc3cc4cnn(C)c4cc3-c3cn[nH]c3)c(F)c2)c(=O)n1-c1ccc(F)cc1 [MERESTINIB] | > 30 µM (inactive) | > 30 µM (inactive) | > 30 µM (inactive) | > 30 µM (inactive) | > 30 µM (inactive) | > 30 µM (inactive) | > 30 µM (inactive) | > 30 µM (inactive) | > 30 µM (inactive)
